Source: US9687477B2 (priority 2011, dated 2017)
Read-outs that look alike come from different tables or passages of the source.

How the values were obtained:
influenza virus [1] = assay: Viral NP in influenza virus-infected HEK-cells treated with sphingolipids (Western blot); format: cell-based, Influenza A/WSN/33 virus (H1N1); details: 1 MOI, 1 μM, 2 dpi
Protocol: FIG. 6 (Panels A-D) set forth data illustrating the enhanced susceptibility of SK1-cells to influenza virus infection. (A) HEK-cells (open triangle) or SK1-cells (filled square) were infected with influenza virus at 0.1 MOI. At 12, 18 or 48 hpi, virus titers were determined by plaque assay. n=3 separate virus-infected cells per group at each time point; Mean±SEM. (B) Western blot analysis was conducted at 2 dpi to detect viral NP and actin. (C) Cell lysates were used for Western blot analysis to detect STAT1, pSTAT1 and actin. (D) HEK-cells were infected with influenza virus at 1 MOI and treated with solvent controls, FTY720 (1 μM), D-erythro-sphingosine (1 μM) or S1P (1 μM). At 2 dpi, total proteins were extracted to detect viral NP and actin by Western blot analysis.
(§1) Specific antibodies against actin, influenza viral protein NP, NS1, NS2, M1, M2, Bax, Bcl-2, PARP, STAT1, pSTAT1, STAT2, pSTAT2, ERK, pERK, p38, p-p38, Akt, pAkt, JNK, pJNK, RanBP3, pRanBP3, p-p90RSK, and FLAG for SPL and SK1 were purchased from Cell Signaling Technology, Abcam, Upstate, or Santa Cruz Biotechnology. Total proteins were extracted by a RIPA buffer supplemented with inhibitors blocking proteases and phosphatases, and then normalized by using a Bradford assay. The protein samples (20 μg each) were run on a 12% SDS-PAGE gel and transferred to a PROTRAN-NC (Whatman). Membrane-bound antibodies were detected by enhanced chemiluminescence (Pierce). All of the presented data were repeated with independent experimental settings, at least twice.
FTY720, D-erythro-sphingosine, and S1P were purchased from Cayman Chemicals. HEK-cells were infected with influenza virus and simultaneously treated with FTY720 (1 μM), D-erythro-sphingosine (1 μM), or its solvent (1% DMSO). Similarly, virus-infected cells were treated with S1P (1 μM) or its solvent (3 mM NaOH). These experiments were repeated two more times, with similar results.

influenza virus [2] = details: cited from earlier work
influenza virus [3] = assay: Survival and weight loss of influenza virus-infected mice treated with SK inhibitor; format: in vivo, C57BL/6 mice
Protocol: FIG. 8 (Panels A-B) set forth data illustrating reduced mortality of influenza virus-infected mice by SK inhibitor treatment. (A) Wild-type C57BL/6 mice (n=5/group) were infected in vivo with influenza virus at 10^5 plaque forming unit (PFU) intra-nasally (i.n.) and injected with vehicle (control, CTR) or DMS {0.1 mg/kg (mpk)} and their lifespan was monitored. (B) Mice were infected with 5×10^4 PFU of influenza virus and then treated with vehicle (control, CTR), DMS (0.003 mpk) or SKI-II (0.012 mpk) via intranasal inoculation. Survival of the infected mice was monitored daily for 14 days.
Refer to FIGS. 8A and 8B. Wild-type C57BL/6 mice (n=5/group) were infected in vivo with influenza virus at 10^5 PFU intra-nasally (i.n.) and injected with vehicle (CTR) or DMS {0.1 mg/kg (mpk)} and their lifespan was monitored.

[4] = tested on: Influenza A/WSN/33 virus (H1N1); assay: microbe, parasite or virus in culture; format: cell-based; details: read-out: EC50 (50% efficacy concentration that blocks virus production)
[5] = tested on: Measles virus (Edmonston strain); format: cell-based
ERK signaling pathway = assay: Influenza virus-induced activation of ERK MAP kinase signal in MDCK cells (Western blot); format: cell-based, canine; details: 3 MOI, 5 μM
Protocol: FIG. 12 (Panels A-C) set forth data illustrating reduced activation of ERK MAP kinase signal by SK inhibitor treatment upon influenza virus infection. (A). MDCK cells were treated with VEH or DMS (5 μM) and infected with influenza virus at 3 MOI. Cell lysates were obtained at the indicated time points and the expression of ERK MAP kinase signaling components were assessed by Western blot analysis. Relative expression of pERK and p90RSK is shown in panels B and C respectively (dotted line, VEH treated; solid line, DMS treated).
as §1

RanBP3 = assay: Influenza virus-induced phosphorylation of RanBP3 in MDCK cells (Western blot); format: cell-based, canine; details: 5 MOI, 5 μM
Protocol: FIG. 11 (Panels A-E) set forth data illustrating critical role of RanBP3 in influenza virus replication and RanBP3 regulation by SK inhibitor. (A-B) MDCK cells were infected with influenza virus at 5 MOI and treated with VEH or DMS (5 μM). Cell lysates were obtained at the indicated time points and the expression of pRanBP3 was assessed by Western blot analysis. Relative expression of pRanBP3 is shown in panel B. (C-E) HEK293 cells were transfected with control siRNA (siCTR) or siRNA targeting RanBP3 (siRanBP3). Western blotting was performed to detect RanBP3 and pRanBP3 (C). Cells were transfected with siRNA and then infected with influenza virus at 0.001 MOI. Virus titers were determined by using a plaque assay (D). Cells were transfected with siRNA and then infected with influenza virus at 1 MOI for 12 hrs. Immunocytochemistry followed by confocal microscopic analysis was performed to detect influenza viral NP (E).
(§2) Specific antibodies against actin, influenza viral protein NP, NS1, NS2, M1, M2, Bax, Bcl-2, PARP, STAT1, pSTAT1, STAT2, pSTAT2, ERK, pERK, p38, p-p38, Akt, pAkt, JNK, pJNK, RanBP3, pRanBP3, p-p90RSK, and FLAG for SPL and SK1 were purchased from Cell Signaling Technology, Abcam, Upstate, or Santa Cruz Biotechnology. […] Membrane-bound antibodies were detected by enhanced chemiluminescence (Pierce). […]

influenza virus [6] = assay: JAK inhibitor / STAT1 inhibitor assay: viral NP in infected HEK- and SPL-cells; format: cell-based, Influenza A/WSN/33 virus (H1N1); details: 1 MOI, treated at 2 hpi, 10 μM, after 2 days
Source text: FIG. 4 (Panels A-E) set forth data illustrating the analyses for the activation of JAK/STAT following influenza virus infection of SPL-cells. HEK-cells or SPL-cells were uninfected or infected with influenza virus at 1 MOI. (A) At 1 dpi, cell lysates were used for Western blot analysis to detect STAT1, pSTAT1, STAT2, pSTAT2 and actin. (B) At 0, 12 or 18 hpi, whole proteins were extracted and then used for Western blot analysis to detect STAT1, pSTAT1 and actin. (C) HEK- or SPL-cells were pre-treated with fludarabine (1 μM) blocking STAT1 expression, and at 2 dpi, the expression of viral NP and actin was analyzed. (D) HEK-cells (filled bars) and SPL-cells (open bars) were uninfected (CTR) or infected with influenza virus at 1 MOI (left panel) or 10 MOI (right panel). Reverse transcription followed by quantitative real-time PCR was performed to detect the relative mRNA level of IFN-β. […] After 2 days, the level of viral NP and actin was assessed by Western blot analysis.
as §2

For CCCCCCCCCCCCC/C=C/[C@@H](O)[C@@H](N)CO [D-erythro-sphingosine], the “synthesis of influenza viral NP” value (influenza virus [1]) was “failed to enhance the synthesis of influenza viral NP”.

With CCCCCCCCCCCCC/C=C/[C@@H](O)[C@@H](N)COP(=O)(O)O [S1P, sphingosine-1-phosphate] the “synthesis of influenza viral NP” value (influenza virus [1]) was “failed to enhance the synthesis of influenza viral NP”.

With CCCCCCCCc1ccc(CCC(N)(CO)CO)cc1 [FTY720] the “synthesis of influenza viral NP” value (influenza virus [1]) was “failed to enhance the synthesis of influenza viral NP”.

For CCCCCCCOc1ccc(CC[C@@](C)(N)CO)cc1 [AAL-R], the “propagation of influenza virus” value (influenza virus [2]; reference 18) is given as “did not significantly alter the propagation of influenza virus” and the “influenza virus-induced immune pathology” value (influenza virus [2]; references 17, 18) is given as “alleviate influenza virus-induced immune pathology”.

With Oc1ccc(Nc2nc(-c3ccc(Cl)cc3)cs2)cc1 [SKI-II, 4-[4-(4-Chloro-phenyl)-thiazol-2-ylamino]-phenol] the “viability of mice infected with influenza virus” value (influenza virus [3]; single dose 0.012 mpk, 5×10^4 PFU, intranasal, 14 days) was “increased viability of mice infected with influenza virus”, the EC50 ([4]; Influenza A virus, MDCK) was 2.5 µM and the “expression of measles viral proteins” value [5] was “inhibited”. The “production of measles virus (viral titers, plaque assay)” value [5] was “interfered with the production of measles virus”.

In the case of CCCCCCCCCCCCC/C=C/[C@@H](O)[C@H](CO)N(C)C [DMS, D-erythro-N,N-dimethylsphingosine], the “influenza virus-induced activation (phosphorylation) of ERK” value (ERK signaling pathway) is reported as “suppress influenza virus-induced activation”, the “influenza virus-induced activation (phosphorylation) of p90RSK” value (ERK signaling pathway) is reported as “suppress influenza virus-induced activation” and the “weight lost by treated infected mice” value (influenza virus [3]; 10^5 PFU i.n., single dose 0.1 mpk, at 9-10 dpi) is reported as about 20%. For the same compound, the “mortality rate of the infected mice” value (influenza virus [3]; mouse, in vivo, 0.012 mg/kg) was “decreased the mortality rate of the infected mice”, the “protection from influenza virus-induced death (lifespan)” value (influenza virus [3]; mouse, in vivo, 0.1 mg/kg) was “effectively protected them from influenza virus-induced death” and the “weight loss of the infected mice (morbidity experiment)” value (influenza virus [3]; n=5/group, −15% in CTR) was −7%. The EC50 [4] was 4.1 µM and the “influenza virus-induced phosphorylation of RanBP3” value (RanBP3) was “blocked influenza virus-induced phosphorylation of RanBP3”.

For JAK inhibitor I, the “NP expression in HEK-cells” value (influenza virus [6]; HEK-cells) was “only a little increase of NP expression” and the “expression level of viral NP in SPL-cells” value (influenza virus [6]; SPL-cells) was “strongly elevated the expression level of viral NP”.
